In patent US20260125382A1, “COMPOUNDS FOR INHIBITING OR DEGRADING CDK2 AND/OR CDK9 AND MEDICINAL USE THEREOF” (KOREA RESEARCH INSTITUTE OF CHEMICAL TECHNOLOGY, priority 2022, published 2026):

Assays:
CDK2 = biological target: T1, CDK2 (Homo sapiens, UniProt P24941); experiment: CDK protein degradation activity (Western blotting), CDK2; format: cell-based; settings: MDA-MB-231 cells, 16 hours, Western blot
T1 construct: endogenous in cells; host or cells: MDA-MB-231
Summary of the method: (§1)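 MDA-MB-231; cmpd 100 nM / 1 μM / 10 μM final vs DMSO, 16 h. Triton X-100 lysates (pH 7.5, phosphatase/protease inhibitors) → SDS-PAGE → Western blot, anti-CDK2, anti-CDK9, tubulin loading control; densitometry.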

CDK9 = biological target: T2, CDK9 (Homo sapiens, UniProt P50750); experiment: CDK protein degradation activity (Western blotting), CDK9; format: cell-based; settings: MDA-MB-231 cells, 16 hours, Western blot
T2 construct: endogenous in cells; host or cells: MDA-MB-231
Summary of the method: as §1

T2 sequence (P50750 whole entry): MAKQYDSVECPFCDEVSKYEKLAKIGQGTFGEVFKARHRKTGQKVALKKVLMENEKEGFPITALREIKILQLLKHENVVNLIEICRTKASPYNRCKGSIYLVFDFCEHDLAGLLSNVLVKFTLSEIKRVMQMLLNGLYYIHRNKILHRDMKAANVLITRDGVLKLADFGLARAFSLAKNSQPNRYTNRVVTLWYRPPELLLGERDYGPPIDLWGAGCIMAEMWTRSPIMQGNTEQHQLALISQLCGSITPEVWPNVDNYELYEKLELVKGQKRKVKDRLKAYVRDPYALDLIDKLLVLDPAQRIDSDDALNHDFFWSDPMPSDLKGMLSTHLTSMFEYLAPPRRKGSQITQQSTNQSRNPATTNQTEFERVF

| Structure (SMILES) | Enzyme degradation CDK2 (% remaining) @ 0.1 μM (CDK2) | Enzyme degradation CDK2 (% remaining) @ 1 μM (CDK2) | Enzyme degradation CDK2 (% remaining) @ 10 μM (CDK2) | Enzyme degradation CDK9 (% remaining) @ 0.1 μM (CDK9) | Enzyme degradation CDK9 (% remaining) @ 1 μM (CDK9) | Enzyme degradation CDK9 (% remaining) @ 10 μM (CDK9) |
| --- | --- | --- | --- | --- | --- | --- |
| Cc1cccc(C(=O)N[C@H]2C[C@@H](n3cnc4c(Nc5ccc(N6CCN(C7CC8(CCN(C(=O)C9CN(c%10ccc%11c(c%10)C(=O)N(C%10CCC(=O)NC%10=O)C%11=O)C9)CC8)C7)CC6)cc5)ncnc43)C2)n1 (stereo partly drawn) [Compound 387, N-((1s,3s)-3-(6-((4-(4-(7-(1-(2-(2,6-dioxopiperidin-3-yl)-1,3-dioxoisoindolin-5-yl)azetidin-3-carbonyl)-7-azaspiro[3.5]nonan-2-yl)piperazin-1-yl)phenyl)amino)-9H-purin-9-yl)cyclobutyl)-6-methylpicolinamide] | 50% | 40% | 40% | 20% | 0% | 0% |
| Cc1cccc(C(=O)NC2CC(n3cnc4c(Nc5ccc(N6CCN(CCC7CCN(C(=O)C8CN(c9ccc%10c(c9)C(=O)N([C@H]9CCC(=O)NC9=O)C%10=O)C8)CC7)CC6)cc5)ncnc43)C2)n1 (stereo partly drawn) [Compound 388, N-((1s,3s)-3-(6-((4-(4-(2-(1-(1-(2-(2,6-dioxopiperidin-3-yl)-1,3-dioxoisoindolin-5-yl)azetidin-3-carbonyl)piperidin-4-yl)ethyl)piperazin-1-yl)phenyl)amino)-9H-purin-9-yl)cyclobutyl)-6-methylpicolinamide] | 40/40/40% | 40/40/40% | 40/40/40% | 0/0/0% | 0/0/0% | 0/0/0% |
| Cc1cccc(C(=O)N[C@H]2C[C@@H](n3cnc4c(Nc5ccc(N6CCN(CCC7CCN(C(=O)C8CCN(c9ccc%10c(c9)C(=O)N([C@H]9CCC(=O)NC9=O)C%10=O)CC8)CC7)CC6)cc5)ncnc43)C2)n1 [Compound 389, N-((1s,3s)-3-(6-((4-(4-(2-(1-(1-(2-(2,6-dioxopiperidin-3-yl)-1,3-dioxoisoindolin-5-yl)piperidin-4-carbonyl)piperidin-4-yl)ethyl)piperazin-1-yl)phenyl)amino)-9H-purin-9-yl)cyclobutyl)-6-methylpicolinamide] | 40% | 30% | 30% | 0/0/0% | 0/0/0% | 0/0/0% |
| O=C1CC[C@H](N2C(=O)c3ccc(N4CCC(CN5CCN(c6ccc(Nc7ncnc8c7ncn8[C@H]7C[C@@H](NC(=O)c8cccc(F)n8)C7)cc6)CC5)CC4)cc3C2=O)C(=O)N1 [Compound 390, N-((1s,3s)-3-(6-((4-(4-((1-(2-(2,6-dioxopiperidin-3-yl)-1,3-dioxoisoindolin-5-yl)piperidin-4-yl)methyl)piperazin-1-yl)phenyl)amino)-9H-purin-9-yl)cyclobutyl)-6-fluoropicolinamide] | 20/20/20% | 20/20/20% | 20/20/20% | 10% | 0% | 0% |
| O=C1CCC(N2C(=O)c3ccc(N4CCC(CN5CCN(c6ccc(Nc7ncnc8c7ncn8[C@H]7C[C@@H](NC(=O)c8cccc(Cl)n8)C7)cc6)CC5)CC4)cc3C2=O)C(=O)N1 (stereo partly drawn) [Compound 391, 6-chloro-N-((1s,3s)-3-(6-((4-(4-((1-(2-(2,6-dioxopiperidin-3-yl)-1,3-dioxoisoindolin-5-yl)piperidin-4-yl)methyl)piperazin-1-yl)phenyl)amino)-9H-purin-9-yl)cyclobutyl)picolinamide] | 10/10/10% | 10/10/10% | 10/10/10% | 0/0/0% | 0/0/0% | 0/0/0% |

The remaining lines, values ahead:

| Enzyme degradation CDK2 (% remaining) @ 0.1 μM (CDK2) | Enzyme degradation CDK2 (% remaining) @ 1 μM (CDK2) | Enzyme degradation CDK2 (% remaining) @ 10 μM (CDK2) | Enzyme degradation CDK9 (% remaining) @ 0.1 μM (CDK9) | Enzyme degradation CDK9 (% remaining) @ 1 μM (CDK9) | Enzyme degradation CDK9 (% remaining) @ 10 μM (CDK9) | Structure (SMILES) |
| --- | --- | --- | --- | --- | --- | --- |
| 0% | 0% | 10% | 0/0/0% | 0/0/0% | 0/0/0% | N#Cc1cccc(C(=O)NC2CC(n3cnc4c(Nc5ccc(N6CCN(CC7CCN(c8ccc9c(c8)C(=O)N([C@H]8CCC(=O)NC8=O)C9=O)CC7)CC6)cc5)ncnc43)C2)n1 (stereo partly drawn) [Compound 392, 6-cyano-N-((1s,3s)-3-(6-((4-(4-((1-(2-(2,6-dioxopiperidin-3-yl)-1,3-dioxoisoindolin-5-yl)piperidin-4-yl)methyl)piperazin-1-yl)phenyl)amino)-9H-purin-9-yl)cyclobutyl)picolinamide] |
| 10/10/10% | 10/10/10% | 10/10/10% | 0/0/0% | 0/0/0% | 0/0/0% | O=C1CC[C@H](N2C(=O)c3ccc(N4CCC(CN5CCN(c6ccc(Nc7ncnc8c7ncn8C7CC(NC(=O)c8cccc(C(F)(F)F)n8)C7)cc6)CC5)CC4)cc3C2=O)C(=O)N1 (stereo partly drawn) [Compound 393, N-((1s,3s)-3-(6-((4-(4-((1-(2-(2,6-dioxopiperidin-3-yl)-1,3-dioxoisoindolin-5-yl)piperidin-4-yl)methyl)piperazin-1-yl)phenyl)amino)-9H-purin-9-yl)cyclobutyl)-6-(trifluoromethyl)picolinamide] |
| 20/20/20% | 20/20/20% | 20/20/20% | 0/0/0% | 0/0/0% | 0/0/0% | O=C1CC[C@H](N2C(=O)c3ccc(N4CC(C(=O)N5CCC(CN6CCN(c7ccc(Nc8ncnc9c8ncn9[C@H]8C[C@@H](NC(=O)c9c(Cl)cccc9Cl)C8)cc7)CC6)CC5)C4)cc3C2=O)C(=O)N1 [Compound 394, 2,6-dichloro-N-((1s,3s)-3-(6-((4-(4-((1-(1-(2-(2,6-dioxopiperidin-3-yl)-1,3-dioxoisoindolin-5-yl)azetidin-3-carbonyl)piperidin-4-yl)methyl)piperazin-1-yl)phenyl)amino)-9H-purin-9-yl)cyclobutyl)benzamide] |
| 20/20/20% | 20/20/20% | 20/20/20% | 0/0/0% | 0/0/0% | 0/0/0% | O=C1CC[C@H](N2C(=O)c3ccc(N4CCC(C(=O)N5CCC(CN6CCN(c7ccc(Nc8ncnc9c8ncn9C8CC(NC(=O)c9c(Cl)cccc9Cl)C8)cc7)CC6)CC5)CC4)cc3C2=O)C(=O)N1 (stereo partly drawn) [Compound 395, 2,6-dichloro-N-((1s,3s)-3-(6-((4-(4-((1-(1-(2-(2,6-dioxopiperidin-3-yl)-1,3-dioxoisoindolin-5-yl)piperidin-4-carbonyl)piperidin-4-yl)methyl)piperazin-1-yl)phenyl)amino)-9H-purin-9-yl)cyclobutyl)benzamide] |
| 20% | 30% | 30% | 20/20/20% | 20/20/20% | 20/20/20% | O=C1CCC(N2C(=O)c3ccc(N4CCC(CN5CCC(CCNc6ncnc7c6ncn7[C@H]6C[C@@H](NC(=O)c7c(Cl)cccc7Cl)C6)CC5)CC4)cc3C2=O)C(=O)N1 (stereo partly drawn) [Compound 396, 2,6-dichloro-N-((1s,3s)-3-(6-((2-(1-((1-(2-(2,6-dioxopiperidin-3-yl)-1,3-dioxoisoindolin-5-yl)piperidin-4-yl)methyl)piperidin-4-yl)ethyl)amino)-9H-purin-9-yl)cyclobutyl)benzamide] |
| 50% | 30% | 30% | 70% | 10% | 10% | O=C1CC[C@H](N2C(=O)c3cc(F)c(N4CCC(CN5CCC(CCNc6ncnc7c6ncn7[C@H]6C[C@@H](NC(=O)c7c(Cl)cccc7Cl)C6)CC5)CC4)cc3C2=O)C(=O)N1 [Compound 397, 2,6-dichloro-N-((1s,3s)-3-(6-((2-(1-((1-(2-(2,6-dioxopiperidin-3-yl)-6-fluoro-1,3-dioxoisoindolin-5-yl)piperidin-4-yl)methyl)piperidin-4-yl)ethyl)amino)-9H-purin-9-yl)cyclobutyl)benzamide] |
| 20% | 30% | 30% | 20% | 10% | 10% | O=C1CC[C@H](n2nnc3ccc(N4CCC(CN5CCC(CCNc6ncnc7c6ncn7C6CC(NC(=O)c7c(Cl)cccc7Cl)C6)CC5)CC4)cc3c2=O)C(=O)N1 (stereo partly drawn) [Compound 398, 2,6-dichloro-N-((1s,3s)-3-(6-((2-(1-((1-(3-(2,6-dioxopiperidin-3-yl)-4-oxo-3,4-dihydrobenzo[d][1,2,3]triazin-6-yl)piperidin-4-yl)methyl)piperidin-4-yl)ethyl)amino)-9H-purin-9-yl)cyclobutyl)benzamide] |
